Patent publication US5912356A, “Antiviral nucleoside analogues containing a substituted benzimidazole base attached to a carbocyclic ring” (Glaxo Wellcome Inc., priority 1997, dated 1999)

How the values were obtained:
[1] = system: Human cytomegalovirus (HCMV); assay: Anti-HCMV plaque reduction assay in MRC5 cell monolayers; assay type: cell-based; details: Human betaherpesvirus 5, 50% inhibitory concentration, MRC5 cells (human embryonic lung)
Procedure: Human cytomegalovirus (HCMV) is assayed in monolayers of MRC5 cells (human embryonic lung) in multiwell trays. Activity of compounds is determined in the plaque reduction assay, in which a cell monolayer is infected with a suspension of HCMV. A range of concentrations of the compound to be tested (of known molarity) is then incorporated into the carboxymethyl cellulose overlay. Plaque numbers of each concentration are expressed as percentage of the control and a dose-response curve is drawn. From this curve the 50% inhibitory concentration (IC50) is estimated.

HBV = assay: Anti-HBV assay: HBV DNA in supernatants of HBV-producing cells (HepG2 2.2.15, P5A), immunoaffinity capture, PCR and hybrid-capture detection; assay type: cell-based, hepatitis B virus (HBV); details: 50 percent decrease in HBV DNA, HepG2 2.2.15, P5A cell line, two values per compound, ganciclovir (control): average of 10 values
Procedure: Anti-HBV activity of compounds of formula (I) and (I-1) was determined with a high-capacity assay for assessing efficacy. Supernatants from growing HBV-producing cells (HepG2 2.2.15, P5A cell line) in 96-well plates are applied to microtiter plate wells which have been coated with a specific monoclonal antibody to HBV surface antigen (HBsAg). Virus particles present in the supernatants bind to the antibody and remain immobilized while other debris is removed by washing. These virus particles are then denatured to release HBV DNA strands which are subsequently amplified by the polymerase chain reaction and detected with a calorimetric hybrid-capture assay. Quantitation is achieved through fitting of a standard curve to dilutions of a cell supernatant with known HBV DNA content. By comparing HBV DNA levels of untreated control cell supernatants with supernatants containing a compound of formula (I) or (I-1), a measure of anti-HBV effectiveness is obtained.
b. Immunoaffinity Capture of HBV:
HBV producer cells, 2500 cells/well, were seeded in 96-well culture dishes in RPMI/10% fetal bovine serum/2 mM glutamine (RPMI/10/2:). Media were replenished on days 1, 3, 5, and 7 with dilutions of a compound of formula (1) or (I-1) in RPMI/10/2 to a final volume of 150 uL. Fifty uL of mouse monoclonal anti-HBsAG antibody (10 ug/mL in PBS) were added to each well of a round-bottom microtiter plate. After incubation overnight at 4° C., the solutions were aspirated and replaced with 100 uL of 0.1% BSA in PBS. Samples were incubated for 2 hours at 37° C. and washed three times with PB S/0/01% Tween-20 (PBS/T) using a Nunc Washer. Ten uL of 0.035% Tween 20 in PBS were then added to all wells by Pro/Pette. Cell supernatants (25 uL) containing extracellular virion DNA were transferred into wells by Pro/Pette; the final Tween concentration is 0.01%. Twenty-five uL HBV standard media dilutions in RPMI/10/2 were added to 2 rows of wells to serve as an internal standard curve for quantitation, and the plates were sealed and incubated at 4° C. overnight. Samples were washed 5 times with PBS/T and 2 times with PBS, aspirating the last wash. Next, 25 uL of 0.09N NaOH/0.01% NP40 were added to each well by Pro/Pette, and the sample wells were sealed and incubated at 37° C. for 60 minutes. Samples were then neutralized with 25 uL of 0.09N HCl/100 mM tris (pH 8.3).
c. Polymerase Chain Reaction (PCR):
Polymerase chain reaction (Saiki, R. K. et al., Science, 239 (4839) 487-91 (1988)) was carried out on 5 uL samples, using a Perkin Elmer PCR kit. PCR is performed in "MicroAmp tubes" in a final volume of 25 uL. Primers were chosen from conserved regions in the HBV genome, as determined by alignment of several sequences. One primer is biotinylated at the 5-prime end to facilitate hybrid-capture detection of the PCR products. All primers were purchased from Synthecell Corp., Rockville, Md. 20850.
d. Hybrid-Capture Detection of PCR Products:
PCR products were detected with horse radish peroxidase-labeled oligonucleotide probes (Synthecell Corp., Rockville, Md. 20850), which hybridize to biotinylated strands of denatured PCR products directly in streptavidin-coated microtiter plate wells, using essentially the method of Holodiniy, M. et al., BioTechniques, 12 (1) 37-39 (1992). Modifications included the use of […] PCR reaction volumes and sodium hydroxide denaturation instead of heat. Simultaneous binding of the biotin moiety to the plate-bound streptavidin during the hybridization serves to "capture" the hybrids. Unbound labeled probes were washed away before calorimetric determination of the bound (hybridized) horse radish peroxidase. Quantities of HBV DNA present in the original samples were calculated by comparison with standards. These values were then compared to those from untreated cell cultures to determine the extent of anti-HBV activity.
IC50 (the median inhibitory concentration) is the amount of compound which produces a 50 percent decrease in HBV DNA. […]

[2] = Hepatitis B virus, HepG2 2.2.15, approximate IC50

| SMILES | IC50 [1] [nM] | IC50 (HBV; [2]) [nM] | IC50 (HBV; approximate IC50) [nM] |
| --- | --- | --- | --- |
| OC[C@@H]1C[C@H](n2c(Br)nc3cc(Cl)c(Cl)cc32)[C@@H](O)[C@H]1O (relative stereo) [Ex. 4, (±)-(1R*, 2S*, 3S*, 5S*)-5-(2-Bromo-5,6-dichloro-1H-benzimidazol-1yl)-3-(hydroxymethyl)-1,2-cyclopentanediol] | 1900 |  |  |
| OC[C@@H]1C[C@H](n2c(NC3CC3)nc3cc(Cl)c(Cl)cc32)[C@@H](O)[C@H]1O [Ex. 32, (1R, 2S, 3S, 5S)-5-[5,6-Dichloro-2-(cyclopropylamino)-1H-benzimidazol-1-yl]-3-(hydroxymethyl)-1,2-cyclopentanediol] |  | 1300 | 790 |
| CC(C)Nc1nc2cc(Cl)c(Cl)cc2n1[C@H]1C[C@@H](CO)[C@H](O)[C@@H]1O [Ex. 33, (1R, 2S, 3S, 5S)-5-[5,6-Dichloro-2-(isopropylamino)-1H-benzimidazol-1-yl]-3-(hydroxymethyl)-1,2-cyclopentanediol] |  | 440 | 500 |
| CC(C)(C)Nc1nc2cc(Cl)c(Cl)cc2n1[C@H]1C[C@@H](CO)[C@H](O)[C@@H]1O [Ex. 40, (1R, 2S, 3S, 5S)-5-[2-(tert-Butylamino)-5,6-dichloro-1H-benzimidazol-1-yl]-3-(hydroxymethyl)-1,2-cyclopentanediol] |  |  | 1400 |
| Nc1nc(O)c2ncn(COC(CO)CO)c2n1 [ganciclovir, reference compound] |  | 1100 |  |
